{
  "source": "BindingDB's records for doi:10.1021/acs.jnatprod.9b00663",
  "about": "(University of Utah, 2019)",
  "biological_target": "Low molecular weight phosphotyrosine protein phosphatase (Homo sapiens) (UniProt P24666)",
  "sequence (P24666 whole entry, looked up)": "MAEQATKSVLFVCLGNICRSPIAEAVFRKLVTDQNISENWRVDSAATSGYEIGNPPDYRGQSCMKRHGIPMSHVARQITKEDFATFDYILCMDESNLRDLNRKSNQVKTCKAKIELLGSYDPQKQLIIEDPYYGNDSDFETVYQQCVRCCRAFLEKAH",
  "experiment": "Inhibition of LMWPTP (unknown origin) using DiFMUP as substrate incubated for 30 mins followed by substrate addition at pH 6.5 by standard phosphatase assay based fluorescence analysis",
  "data": [
    {"smiles": "COc1c(C=O)c2c(c3c1CC(C)(C)C3)C(=O)OC(O)C2", "note": "(configuration not stated) [3-Hydroxy-6-methoxy-8,8-dimethyl-1-oxo-1,3,4,7,8,9-hexahydro-cyclopenta[h]isochromene-5-carbaldehyde]", "values": [
      {"measurement": "IC50", "result": "> 100", "unit": "µM"}
    ]},
    {"smiles": "CC1(C)Cc2c(O)c(C=O)c3c(c2C1)C(=O)OC(O)C3", "note": "(configuration not stated) [Illudalic acid]", "values": [
      {"measurement": "IC50", "result": "> 100", "unit": "µM"}
    ]}
  ]
}
